Assay results: patent US20260138962A1, “SYNTHESIS OF DERIVATIVES OF SIPH[…] THERAPEUTIC USE THEREOF” (priority 2022, published 2026)
Converted amounts (≈) assume the structure as drawn. “And” between values parts separate entries of the source, which are not always exact repeats. Equal entries are not always repeated.

Experiments:
[1] = tested on: Influenza A-type virus (strain 108 617); test: Cytopathic Effect Reduction Assay against Influenza A (CERA-1) in MDCK cells; assay type: cell-based; conditions: for IC50: calculated with GraphPad Prism
MDCK cells = conditions: all test concentrations, 50.0 to 3.75 μg/mL
[2] = tested on: SARS-CoV-2 Wuhan isolate (wild type); test: microbe, parasite or virus in culture; assay type: cell-based; conditions: Severe acute respiratory syndrome coronavirus 2, Vero C1008

SMILES | inhibition at 50 µg/mL ([1]; Influenza A virus, MDCK, 50.0 μg/mL) [%] | IC50 ([1]; Influenza A virus) [µg/mL] | toxicity (MDCK cells) | inhibition ([1]; 50.0 μg/mL) | inhibition at 3.75 µg/mL ([1]; Influenza A virus, MDCK, 3.75 μg/mL) [%] | IC50 ([2]; Wuhan strain, in vitro) [µg/mL] | inhibition at 0.5 µg/mL ([2]; Wuhan, 0.5 μg/ml, Vero E6 cells) [%] | inhibition at 2 µg/mL ([2]; Wuhan, 2 μg/ml, Vero E6 cells) [%] | inhibition at 5 µg/mL ([2]; Wuhan, 5 μg/ml, Vero E6 cells) [%] | inhibition at 16 µg/mL ([2]; Wuhan, 16 μg/ml, Vero E6 cells) [%] | inhibition at 50 µg/mL ([2]; Wuhan, 50 μg/ml, Vero E6 cells) [%]
NC(=O)c1ncn([C@@H]2O[C@H](CO)[C@@H](O)[C@H]2O)n1 [ribavirin, reference compound] | > 105 | 2.16 (≈ 8.84 µM) |  |  |  |  |  |  |  |  | 
CC1=C2C[C@@H]3[C@@H](C)C=CC(=O)[C@@]3(C)C[C@@]2(O)OC1=O [HLS, (4aR,5S,8aS,9aR)-9a-hydroxy-3,5,8a-trimethyl-4a,5,9,9a-tetrahydronaphtho[2,3-b]furan-2,8(4H,8aH)-dione] |  | 9.2 (≈ 35.1 µM) | no toxicity | > 100% and > 123% | > 30 | 3.03 (≈ 11.6 µM) | 25 | 50 | 75 | 100 | 100
